One test addresses T1, Recombinant human Src (Homo sapiens, UniProt P12931).
T1 construct: made in house; host or cells: baculovirus-insect cell system
Briefly: Src tyrosine kinase activity, poly E4Y and 32P-ATP. The test is classed as biochemical. In outline:
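Recombinant GST-Csk (E. coli) or baculovirus-expressed human Src assayed on poly E4Y in 0.15 M EPPS-NaOH pH 8.0, 6 mM MgCl2, 0.2 mM γ32P-ATP, 10% glycerol, 0.1% Triton X-100. Read-out is 32P incorporation into poly E4Y; for ATP variation (0–250 μM), poly E4Y held at 150 μg/ml.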

A further test deals with T2, Csk (Homo sapiens, UniProt P41240).
T2 construct: GST (glutathione-S-transferase) (N); made in house; host or cells: E. coli (pGEX vector)
T2 sequence (P41240 whole entry, species assumed): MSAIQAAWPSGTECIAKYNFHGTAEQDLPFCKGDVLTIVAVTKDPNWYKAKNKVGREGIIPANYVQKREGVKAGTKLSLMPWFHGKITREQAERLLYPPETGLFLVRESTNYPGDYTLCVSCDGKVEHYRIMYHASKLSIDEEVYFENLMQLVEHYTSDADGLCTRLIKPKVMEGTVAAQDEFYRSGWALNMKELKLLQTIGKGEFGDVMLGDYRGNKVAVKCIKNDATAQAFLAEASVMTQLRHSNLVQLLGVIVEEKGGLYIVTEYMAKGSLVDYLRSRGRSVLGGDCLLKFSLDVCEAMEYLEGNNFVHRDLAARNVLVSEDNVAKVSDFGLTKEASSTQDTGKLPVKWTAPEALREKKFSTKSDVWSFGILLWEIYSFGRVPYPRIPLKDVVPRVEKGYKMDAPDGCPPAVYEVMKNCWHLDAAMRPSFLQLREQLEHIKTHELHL
Briefly: Csk tyrosine kinase activity, poly E4Y and 32P-ATP. The test is classed as biochemical. The settings on record: screening assay, 50 μg/ml poly E4Y, 0.2 mM 32P-ATP. How it is done:
Recombinant human Src was expressed using the baculovirus-insect cell system and purified as published (Budde et al., 1993 and 2000). Recombinant Csk and the FGF receptor (FGFr) were expressed as glutathione-S-transferase fusion proteins using the pGEX expression vector and E. coli, and purified as described (Sun & Budde, 1995).
The tyrosine kinase activity of Src, Csk and FGFr was determined using poly E4Y and ^32P-ATP. Briefly, enzymes were assayed in a reaction mixture consisting of 0.15 M EPPS-NaOH (pH 8.0) with 6 mM MgCl2, 0.2 mM γ^32P-ATP (0.2-0.4 mCi/μmol), 10% glycerol, 0.1% Triton X-100, and poly E4Y. Poly E4Y is a synthetic peptide whose phosphorylation is measured in this assay by the addition of the radioactively labeled phosphate from the ATP (Budde et al., 1995). […] When ATP was varied (0, 50, 100 and 250 μM), poly E4Y was kept constant at 150 μg/ml.

Where [1] appears, read: Table 2, read-out: Src IC50 (especially good inhibitors of Src).
The mark [2] stands for this setting: read-out: IC50 (preferred compounds for treatment of Src family-related disease).

Like-named read-outs stand apart in the source and are kept apart here.

T1 sequence (P12931 whole entry): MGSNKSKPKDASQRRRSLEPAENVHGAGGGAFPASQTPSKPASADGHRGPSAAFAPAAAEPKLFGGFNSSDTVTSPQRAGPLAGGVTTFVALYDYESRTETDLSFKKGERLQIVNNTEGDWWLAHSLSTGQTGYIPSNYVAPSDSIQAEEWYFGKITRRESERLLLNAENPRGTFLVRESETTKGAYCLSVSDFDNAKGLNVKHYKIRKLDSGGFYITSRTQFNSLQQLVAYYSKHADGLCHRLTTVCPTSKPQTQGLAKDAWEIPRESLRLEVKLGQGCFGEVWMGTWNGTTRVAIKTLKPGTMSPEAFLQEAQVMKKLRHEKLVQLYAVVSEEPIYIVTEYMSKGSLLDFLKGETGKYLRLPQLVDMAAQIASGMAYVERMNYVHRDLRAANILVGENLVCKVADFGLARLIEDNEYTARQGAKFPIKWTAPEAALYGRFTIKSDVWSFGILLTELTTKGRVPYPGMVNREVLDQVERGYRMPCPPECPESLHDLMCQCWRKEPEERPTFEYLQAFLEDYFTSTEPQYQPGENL

In the case of `C(=NNc1ncnc2c1sc1ncccc12)c1cccs1` [Compound 244, 2-Thiophenecarboxaldehyde(pyrido[3′,2′:4,5]thieno[3,2-d]pyrimidin-4-yl)hydrazone], the half-inhibitory concentration (IC50) on Recombinant human Src (setting [1]) was at most 2000 nM; at Recombinant human Src (setting [2]) it was below 2000 nM; on Csk, above 161000 nM.

Regarding `COc1ccc(C=NNc2ncnc3c2sc2ncccc23)cc1O` [Compound 247, 3-Hydroxy-4-methoxybenzaldehyde(pyrido[3′,2′:4,5]thieno[3,2-d]pyrimidin-4-yl)hydrazone], the values for the IC50 on Recombinant human Src (setting [1]), on Recombinant human Src (setting [2]) and against Csk were at most 2000 nM, below 2000 nM and above 142000 nM, respectively.

On to `C(=NNc1ncnc2cc(-c3ccccc3)sc12)c1ccncc1` [Compound 252, 4-Pyridinecarboxaldehyde(6-phenylthieno[3,2-d]pyrimidin-4-yl)hydrazone], for which the IC50 is at most 2000 nM at Recombinant human Src (setting [1]), below 2000 nM at Recombinant human Src (setting [2]) and above 151000 nM against Csk.

On to `CCc1csc2c(NN=Cc3cccnc3)ncnc12` [Compound 257, 3-Pyridinecarboxaldehyde(7-ethylthieno[3,2-d]pyrimidin-4-yl)hydrazone], for which the IC50 is at most 2000 nM on Recombinant human Src (setting [1]), below 2000 nM on Recombinant human Src (setting [2]) and above 176000 nM against Csk.

Regarding `CCCc1csc2c(NN=Cc3cccnc3)ncnc12` [Compound 264, 3-Pyridinecarboxaldehyde(7-propylthieno[3,2-d]pyrimidin-4-yl)hydrazone], the IC50 was at most 2000 nM at Recombinant human Src (setting [1]), below 2000 nM on Recombinant human Src (setting [2]) and above 168000 nM against Csk.

`Fc1ccc(-c2cc3ncnc(NN=Cc4cccnc4)c3s2)cc1` [Compound 278, 3-Pyridinecarboxaldehyde(6-(4-fluorophenyl)thieno[3,2-d]pyrimidin-4-yl)hydrazone]: the IC50 is at most 2000 nM on Recombinant human Src (setting [1]), below 2000 nM on Recombinant human Src (setting [2]) and above 143000 nM at Csk.

`CS(=O)(=O)c1ccc(-c2cc3ncnc(NN=Cc4cccnc4)c3s2)cc1` [Compound 290, 3-Pyridinecarboxaldehyde(6-(4-methanesulphonylphenyl)thieno-[3,2-d]pyrimidin-4-yl)hydrazone]: the 50% inhibitory concentration (IC50) at Recombinant human Src (setting [1]) is at most 2000 nM; at Recombinant human Src (setting [2]), below 2000 nM; on Csk, above 122000 nM.

In the case of `O=C(O)c1ccc(C=NNc2ncnc3cc(-c4ccc(Cl)cc4)sc23)cc1` [Compound 309, 4-Carboxybenzaldehyde(6-(4-chlorophenyl)thieno[3,2-d]pyrimidin-4-yl)hydrazone], the half-inhibitory concentration (IC50) on Recombinant human Src (setting [1]) is at most 2000 nM; at Recombinant human Src (setting [2]), below 2000 nM; on Csk, above 122000 nM.

In the case of `Clc1ccccc1-c1cc2ncnc(NN=Cc3cccnc3)c2s1` [Compound 317, 3-Pyridinecarboxaldehyde(6-(2-chlorophenyl)thieno[3,2-d]pyrimidin-4-yl)hydrazone], the IC50 was at most 2000 nM at Recombinant human Src (setting [1]), below 2000 nM at Recombinant human Src (setting [2]) and above 137000 nM at Csk.

On to `Clc1ccccc1-c1cc2ncnc(NN=Cc3cccs3)c2s1` [Compound 320, 2-Thiophenecarboxaldehyde(6-(2-chlorophenyl)thieno[3,2-d]pyrimidin-4-yl)hydrazone], for which the IC50 on Recombinant human Src (setting [1]) was at most 2000 nM; at Recombinant human Src (setting [2]), below 2000 nM; at Csk it was above 135000 nM.

Consider `Cc1c(-c2ccccc2)sc2c(NN=Cc3cccs3)ncnc12` [Compound 361, 2-Thiophenecarboxaldehyde(7-methyl-6-phenylthieno[3,2-d]pyrimidin-4-yl)hydrazone], for which the IC50 on Recombinant human Src (setting [1]) is at most 2000 nM; on Recombinant human Src (setting [2]), below 2000 nM; against Csk it was above 143000 nM.

As to `COc1ccc(C=NNc2ncnc3c(C)c(-c4ccccc4)sc23)cc1O` [Compound 362, 3-Hydroxy-4-methoxybenzaldehyde(7-methyl-6-phenylthieno[3,2-d]pyrimidin-4-yl)hydrazone], the IC50 is at most 2000 nM on Recombinant human Src (setting [1]), below 2000 nM on Recombinant human Src (setting [2]) and above 128000 nM on Csk.

Consider `Cc1c(I)sc2c(NN=Cc3cccnc3)ncnc12` [Compound 372, 3-Pyridinecarboxaldehyde(6-iodo-7-methylthieno[3,2-d]pyrimidin-4-yl)hydrazone], for which the IC50 was at most 2000 nM at Recombinant human Src (setting [1]), below 2000 nM at Recombinant human Src (setting [2]) and above 127000 nM at Csk.

`COc1ccc(C=NNc2ncnc3c(C)c(I)sc23)cc1O` [Compound 375, 3-Hydroxy-4-methoxybenzaldehyde(6-iodo-7-methylthieno[3,2-d]pyrimidin-4-yl)hydrazone]: the values for the IC50 on Recombinant human Src (setting [1]), at Recombinant human Src (setting [2]) and at Csk were at most 2000 nM, below 2000 nM and above 114000 nM, respectively.

For `Cc1c(-c2ccsc2)sc2c(NN=Cc3cccnc3)ncnc12` [Compound 379, 3-Pyridinecarboxaldehyde(7-methyl-6-(3-thienyl)thieno[3,2-d]pyrimidin-4-yl)hydrazone], the figures for the IC50 on Recombinant human Src (setting [1]), at Recombinant human Src (setting [2]) and against Csk were at most 2000 nM, below 2000 nM and above 142000 nM, respectively.

Regarding `Cc1c(-c2ccsc2)sc2c(NN=Cc3cccs3)ncnc12` [Compound 381, 2-Thiopnhenecarboxaldehyde(7-methyl-6-(3-thienyl)thieno[3,2-d]pyrimidin-4-yl)hydrazone], the IC50 was at most 2000 nM on Recombinant human Src (setting [1]), below 2000 nM on Recombinant human Src (setting [2]) and above 140000 nM at Csk.

Turning to `Cc1c(-c2ccccc2Cl)sc2c(NN=Cc3cccnc3)ncnc12` [Compound 389, 3-Pyridinecarboxaldehyde(6-(2-chlorophenyl)7-methylthieno[3,2-d]pyrimidin-4-yl)hydrazone], the IC50 at Recombinant human Src (setting [1]) was at most 2000 nM; at Recombinant human Src (setting [2]) it was below 2000 nM; at Csk it was above 132000 nM.

Take `Cc1c(-c2ccccc2Cl)sc2c(NN=Cc3cccs3)ncnc12` [Compound 391, 2-Thiophenecarboxaldehyde(6-(2-chlorophenyl)7-methylthieno[3,2-d]pyrimidin-4-yl)hydrazone]: the half-maximal inhibitory concentration (IC50) on Recombinant human Src (setting [1]) is at most 2000 nM; on Recombinant human Src (setting [2]), below 2000 nM; against Csk it was above 130000 nM.

In the case of `Ic1cc2ncnc(NN=Cc3cccnc3)c2s1` [Compound 394, 3-Pyridinecarboxaldehyde(6-iodothieno[3,2-d]pyrimidin-4-yl)hydrazone], the IC50 at Recombinant human Src (setting [1]) was at most 2000 nM; at Recombinant human Src (setting [2]), below 2000 nM; at Csk it was above 131000 nM.

On to `COc1ccc(C=NNc2ncnc3cc(I)sc23)cc1O` [Compound 397, 3-Hydroxy-4-Methoxybenzaldehyde(6-iodothieno[3,2-d]pyrimidin-4-yl)hydrazone], for which the figures for the IC50 on Recombinant human Src (setting [1]), at Recombinant human Src (setting [2]) and against Csk were at most 2000 nM, below 2000 nM and above 117000 nM, respectively.

With `COc1ccc(-c2cc3ncnc(NN=Cc4ccc(OC)c(O)c4)c3s2)cc1` [Compound 408, 3-Hydroxy-4-methoxybenzaldehyde(6-(4-methoxyphenyl)thieno[3,2-d]pyrimidin-4-yl)hydrazone], the values for the half-maximal inhibitory concentration (IC50) at Recombinant human Src (setting [1]), at Recombinant human Src (setting [2]) and on Csk were at most 2000 nM, below 2000 nM and above 123000 nM, respectively.

For the molecule `COc1ccc(-c2sc3c(NN=Cc4cccnc4)ncnc3c2C)cc1` [Compound 422, 3-Pyridinecarboxaldehyde(6-(4-methoxyphenyl)-7-methylthieno[3,2-d]pyrimidin-4-yl)hydrazone], the IC50 is at most 2000 nM on Recombinant human Src (setting [1]), below 2000 nM at Recombinant human Src (setting [2]) and above 133000 nM against Csk.

Take `COc1ccc(-c2sc3c(NN=Cc4ccc(OC)c(O)c4)ncnc3c2C)cc1` [Compound 425, 3-Hydroxy-4-methoxybenzaldehyde(6-(4-methoxyphenyl)-7-methylthieno[3,2-d]pyrimidin-4-yl)hydrazone]: the results for the IC50 on Recombinant human Src (setting [1]), on Recombinant human Src (setting [2]) and against Csk were at most 2000 nM, below 2000 nM and above 119000 nM, respectively.

For the origin of these results see US7285556B2, “Thienopyrimidine-based inhibitors of the src family” (Board of Regents, The University of Texas Systems, priority 2000, dated 2007).
